From patent US8592395B2, “Therapeutic compounds” (GlaxoSmithKline LLC, priority 2009, dated 2013)

Test system: HIV
Assay: HOS assay (HOS-Luc HIV-1 LTR-luciferase reporter antiviral assay)
Type: cell-based
Conditions: Human immunodeficiency virus 1, 96 h; HOS-Luc cells (HOS-CD4.CCR5 with HIV-1 LTR-luciferase reporter), four-day incubation with virus, luciferase readout
Method: HOS-Luc cells were created by introducing an HIV-1 LTR-luciferase reporter into HOS-CD4.CCR5 (NIH AIDS Research and Reference Reagents Program, cat. #3318). The cells were propagated in DMEM complete medium. Cells were split 1:20 by standard trypsinization when confluency reached 80% (roughly every 2 to 3 days).
Black-walled 96-well tissue culture plates were seeded with HOS-Luc at 6×10^3 cells per well in 50 μL DMEM containing 2% FBS and placed in a humidified incubator at 37° C., 5% CO2 overnight. The following day, test compounds were serially diluted in 4-fold increments at 2× the final concentration in DMEM+2% FBS+0.2% DMSO. Diluted compound (50 μL) was transferred to the HOS-Luc cells and the plates were placed in a humidified incubator at 37° C., 5% CO2 for 1 hr. An additional 60 μL of 2× compound was transferred to a clear-walled 96-well tissue culture plate and 60 μL of virus (diluted 1:50 in tissue culture media) was added to each well and thoroughly mixed. The virus input was previously determined by titrating the virus under assay conditions without compound and selecting a dilution that gives a response in the linear range of the curve and a signal to background of at least 30. The HIV/compound mixture (100 μL) was transferred to the black-walled plates containing 100 μL of cells/compound. The plates were placed in a humidified incubator at 37° C., 5% CO2 for four days. Following the four-day incubation, 150 μL of supernatant was removed and 50 μL of reconstituted Luclite (Promega) was added to each well. For cytotoxicity assessment, 50 μL of reconstituted CellTiter-GLo (Promega) was added to each well. Each plate was topsealed and read in a Topcount (Packard) luminometer at 1 s/well.
Raw data from the HOS-Luc assay were expressed as Relative Light Units (RLU) and normalized according to the following formula: (RLU at drug [ ]/RLU no drug)*100=% control
The potency of test compounds are reported as IC50 values derived from the four parameter Hill equation, defined as: y=Vmax*(1−(x^n/(K^n+x^n)))+Y2 Where:
y=normalized response data
Vmax=upper bound of response
Y2=lower bound or baseline of response

`Cc1nc2ccccc2n1[C@H]1C[C@H]2CC[C@@H](C1)N2CCC(CN(C)S(=O)(=O)c1ccccc1)c1ccccc1` (stereo partly drawn) [Example 2, N-methyl-N-{4-[(1R,5S)-3-(2-methyl-1H-benzimidazol-1-yl)-8-azabicyclo[3.2.1]oct-8-yl]-2-phenylbutyl}benzenesulfonamide] was tested, and the IC50 was < 10 nM.
In the case of `Cc1nc2ccccc2n1[C@H]1C[C@H]2CC[C@@H](C1)N2CCC(CNS(=O)(=O)c1ccccc1)c1ccccc1` (stereo partly drawn) [Example 1, N-{4-[(1R,5S)-3-(2-methyl-1H-benzimidazol-1-yl)-8-azabicyclo[3.2.1]oct-8-yl]-2-phenylbutyl}], the IC50 is reported as 10 to 100 nM.
Molecule `Cc1nc2ccccc2n1[C@H]1C[C@H]2CC[C@@H](C1)N2CCC(CNS(=O)(=O)NC1CCC(F)(F)CC1)c1ccccc1` (stereo partly drawn) [Example 15, N-(4,4-difluorocyclohexyl)-N′-{4-[(1R,5S)-3-(2-methyl-1H-benzimidazol-1-yl)-8-azabicyclo[3.2.1]oct-8-yl]-2-phenylbutyl}sulfamide] has an IC50 of 10 to 100 nM.
`COP(=O)(NCC(CCN1[C@@H]2CC[C@H]1C[C@@H](n1c(C)nc3ccccc31)C2)c1ccccc1)OC` (stereo partly drawn) [Example 9, dimethyl{4-[(1R,5S)-3-(2-methyl-1H-benzimidazol-1-yl)-8-azabicyclo[3.2.1]oct-8-yl]-2-phenylbutyl}amidophosphate] showed an IC50 of 10 to 100 nM.
`Cc1nc2ccccc2n1[C@H]1C[C@H]2CC[C@@H](C1)N2CCC(CNS(=O)(=O)c1ccc(C#N)cc1)c1ccccc1` (stereo partly drawn) [Example 4, 4-cyano-N-{4-[(1R,5S)-3-(2-methyl-1H-benzimidazol-1-yl)-8-azabicyclo[3.2.1]oct-8-yl]-2-phenylbutyl}benzenesulfonamide] gave an IC50 of 10 to 100 nM.
In the case of `Cc1nnc(C(C)C)n1[C@H]1C[C@H]2CC[C@@H](C1)N2CCC(CNS(=O)(=O)c1ccccc1)c1ccccc1` (stereo partly drawn) [Example 17, N-(4-{(1R,5S)-3-[3-methyl-5-(1-methylethyl)-4H-1,2,4-triazol-4-yl]-8-azabicyclo[3.2.1]oct-8-yl}-2-phenylbutyl)benzenesulfonamide], the IC50 is reported as 100 to 1000 nM.
`Cc1nc2ccccc2n1[C@H]1C[C@H]2CC[C@@H](C1)N2CCC(CNS(C)(=O)=O)c1ccccc1` (stereo partly drawn) [Example 5, N-{4-[(1R,5S)-3-(2-methyl-1H-benzimidazol-1-yl)-8-azabicyclo[3.2.1]oct-8-yl]-2-phenylbutyl}methanesulfonamide] gave an IC50 of 10 to 100 nM.
With `Cc1nc2ccccc2n1[C@H]1C[C@H]2CC[C@@H](C1)N2CCC(CNS(=O)(=O)CC(F)(F)F)c1ccccc1` (stereo partly drawn) [Example 10, 2,2,2-trifluoro-N-{4-[(1R,5S)-3-(2-methyl-1H-benzimidazol-1-yl)-8-azabicyclo[3.2.1]oct-8-yl]-2-phenylbutyl}ethanesulfonamide] the IC50 was 10 to 100 nM.
`Cc1nc2ccccc2n1[C@H]1C[C@H]2CC[C@@H](C1)N2CCC(C)(CN(C)S(=O)(=O)c1ccccc1)c1ccccc1` (stereo partly drawn) [Example 20, N-methyl-N-{2-methyl-4-[(1R,5S)-3-(2-methyl-1H-benzimidazol-1-yl)-8-azabicyclo[3.2.1]oct-8-yl]-2-phenylbutyl}benzenesulfonamide] was tested, and the IC50 was < 10 nM.
Molecule `Cc1nnc(C(C)C)n1[C@@H]1C[C@H]2CC[C@@H](C1)N2CCC(C)(CNS(=O)(=O)c1ccccc1)c1ccccc1` (stereo partly drawn) [Example 24, N-(2-methyl-4-{(1R,5S)-3-[3-methyl-5-(1-methylethyl)-4H-1,2,4-triazol-4-yl]-8-azabicyclo[3.2.1]oct-8-yl}-2-phenylbutyl)benzenesulfonamide] has an IC50 of 100 to 1000 nM.
For `CC(=O)N1CCc2nc(C)n([C@H]3C[C@H]4CC[C@@H](C3)N4CCC(CNS(=O)(=O)c3ccccc3)c3ccccc3)c2C1` (stereo partly drawn) [Example 13, N-{4-[(1R,5S)-3-(5-acetyl-2-methyl-4,5,6,7-tetrahydro-3H-imidazo[4,5-c]pyridin-3-yl)-8-azabicyclo[3.2.1]oct-8-yl]-2-phenylbutyl}benzenesulfonamide], the IC50 was < 10 nM.
Molecule `Cc1nc2ccccc2n1[C@H]1C[C@H]2CC[C@@H](C1)N2CCC(C)(CNC(=O)C1CCC(F)(F)CC1)c1ccccc1` (stereo partly drawn) [Example 21, 4,4-difluoro-N-{2-methyl-4-[(1R,5S)-3-(2-methyl-1H-benzimidazol-1-yl)-8-azabicyclo[3.2.1]oct-8-yl]-2-phenylbutyl}cyclohexanecarboxamide] has an IC50 of 100 to 1000 nM.
With `Cc1nc2ccccc2n1[C@H]1C[C@H]2CC[C@@H](C1)N2CCC(CNS(=O)(=O)N1CCOCC1)c1ccccc1` (stereo partly drawn) [Example 12, N-{4-[(1R,5S)-3-(2-methyl-1H-benzimidazol-1-yl)-8-azabicyclo[3.2.1]oct-8-yl]-2-phenylbutyl}-4-mopholinesulfonamide] the IC50 was 10 to 100 nM.
Molecule `Cc1nc2ccccc2n1[C@H]1C[C@H]2CC[C@@H](C1)N2CCC(CNS(=O)(=O)c1ccc2[nH]c(=O)oc2c1)c1ccccc1` (stereo partly drawn) [Example 7] has an IC50 of 10 to 100 nM.
Molecule `Cc1nc2ccccc2n1[C@H]1C[C@H]2CC[C@@H](C1)N2CCC(CNS(=O)(=O)c1cccc(C#N)c1)c1ccccc1` (stereo partly drawn) [Example 3, 3-cyano-N-{4-[(1R,5S)-3-(2-methyl-1H-benzimidazol-1-yl)-8-azabicyclo[3.2.1]oct-8-yl]-2-phenylbutyl}benzenesulfonamide] has an IC50 of 10 to 100 nM.
Work on `Cc1nc2ccncc2n1[C@H]1C[C@H]2CC[C@@H](C1)N2CCC(CNS(=O)(=O)c1ccccc1)c1ccccc1` (stereo partly drawn) [Example 11, N-{4-[(1R,5S)-3-(2-methyl-3H-imidazo[4,5-c]pyridin-3-yl)-8-azabicyclo[3.2.1]oct-8-yl]-2-phenylbutyl}benzenesulfonamide] yielded an IC50 of 10 to 100 nM.
In the case of `Cc1nnc(C(C)C)n1[C@H]1C[C@H]2CC[C@@H](C1)N2CCC(CNC(=O)C1CCC(F)(F)CC1)c1ccccc1` (stereo partly drawn) [Example 16, 4,4-difluoro-N-(4-{(1R,5S)-3-[3-methyl-5-(1-methylethyl)-4H-1,2,4-triazol-4-yl]-8-azabicyclo[3.2.1]oct-8-yl}-2-phenylbutyl)cyclohexanecarboxamide], the IC50 is reported as 100 to 1000 nM.
`Cc1nc2ccccc2n1[C@H]1C[C@H]2CC[C@@H](C1)N2CCC(C)(CNS(=O)(=O)c1ccccc1)c1ccccc1` (stereo partly drawn) [Example 19, N-{2-methyl-4-[(1R,5S)-3-(2-methyl-1H-benzimidazol-1-yl)-8-azabicyclo[3.2.1]oct-8-yl]-2-phenylbutyl}benzenesulfonamide] gave an IC50 of 100 to 1000 nM.
In the case of `Cc1nc2ccccc2n1[C@H]1C[C@H]2CC[C@@H](C1)N2CCC(CNS(=O)(=O)c1cccc(C(N)=O)c1)c1ccccc1` (stereo partly drawn) [Example 6, 3-[({4-[(1R,5S)-3-(2-methyl-1H-benzimidazol-1-yl)-8-azabicyclo[3.2.1]oct-8-yl]-2-phenylbutyl}amino)sulfonyl]benzamide], the IC50 is reported as 10 to 100 nM.
`Cc1nc2ccccc2n1C1C[C@H]2CC[C@@H](C1)N2CCC(CNS(=O)(=O)c1ccc(C(N)=O)cc1)c1ccccc1` (stereo partly drawn) [Example 8, 4-[({4-[(1R,5S)-3-(2-methyl-1H-benzimidazol-1-yl)-8-azabicyclo[3.2.1]oct-8-yl]-2-phenylbutyl}amino)sulfonyl]benzamide] was tested, and the IC50 was 10 to 100 nM.
Molecule `Cc1nnc(C(C)C)n1[C@H]1C[C@H]2CC[C@@H](C1)N2CCC(CNC(=O)C1CC(F)(F)C1)c1ccccc1` (stereo partly drawn) [Example 18, 3,3-difluoro-N-(4-{(1R,5S)-3-[3-methyl-5-(1-methylethyl)-4H-1,2,4-triazol-4-yl]-8-azabicyclo[3.2.1]oct-8-yl}-2-phenylbutyl)cyclobutanecarboxamide] has an IC50 of 100 to 1000 nM.
`Cc1nnc(C(C)C)n1[C@@H]1C[C@H]2CC[C@@H](C1)N2CCC(C)(CNC(=O)C1CCC(F)(F)CC1)c1ccccc1` (stereo partly drawn) [Example 23, 4,4-difluoro-N-(2-methyl-4-{(1R,5S)-3-[3-methyl-5-(1-methylethyl)-4H-1,2,4-triazol-4-yl]-8-azabicyclo[3.2.1]oct-8-yl}-2-phenylbutyl)cyclohexanecarboxamide] showed an IC50 of 100 to 1000 nM.
For `Cc1nc2ccccc2n1[C@H]1C[C@H]2CC[C@@H](C1)N2CCC(CNS(=O)(=O)NC1CCC1)c1ccccc1` (stereo partly drawn) [Example 14, N-cyclobutyl-N′-{4-[(1R,5S)-3-(2-methyl-1H-benzimidazol-1-yl)-8-azabicyclo[3.2.1]oct-8-yl]-2-phenylbutyl}sulfamide], the IC50 was 10 to 100 nM.
In the case of `Cc1nc2ccccc2n1[C@H]1C[C@H]2CC[C@@H](C1)N2CCC(C)(CN(C)C(=O)C1CCC(F)(F)CC1)c1ccccc1` (stereo partly drawn) [Example 22, 4,4-difluoro-N-methyl-N-{2-methyl-4-[(1R,5S)-3-(2-methyl-1H-benzimidazol-1-yl)-8-azabicyclo[3.2.1]oct-8-yl]-2-phenylbutyl}cyclohexanecarboxamide], the IC50 is reported as 100 to 1000 nM.
